Counter-ions that a name gives are not always drawn.
System: trypsin from L. alexandri pyloric cecum (Pacamã trypsin)
Test: p-nitroaniline release at […] nm, Lineweaver-Burk
Format: biochemical, Lophiosilurus alexandri
Conditions: optimum pH (9.0) and temperature (50 °C), 90 min, BAPNA 0-6.0 mM

Km: 517 µM
Structure (SMILES): N=C(N)NCCCC(NC(=O)c1ccccc1)C(=O)Nc1ccc([N+](=O)[O-])cc1 (racemic) [BAPNA, Nα-Benzoyl-D,L-arginine 4-nitroanilide hydrochloride]
